Experiment [1] addresses T1, binding between caspase3 and xIAP (Homo sapiens, UniProt P98170).
T1 construct: made in house; host or cells: E. coli BL21
Nature of the experiment: protein chip (CI-chip) SPR imaging screening of inhibitors of interaction between caspase3 and xIAP. Particulars: within the range from 50 to 400 μM; FIG. 3. The text has this: Whether the obtained proteins bind to the gold chip having L-glutathione on the surface thereof, was pre-experimented. After a bacteria cell extract containing 20% glycerol, in which GST-tag-fused cas3 (29) obtained in Example 1-1 has been over-expressed, was dispersed in 384 microwell plate, it was spotted on the gold chip having L-glutathione on the surface thereof with a pin having a diameter of 335 μm under a constant humidity of 75% using automatic robotic arrayer(proteogen, CM-1000), and then subjected to RT shaking incubation for 3 hours, thus constructing Cl-chip having gold chip as a substrate.
Inhibitors of interaction between caspase3 and xIAP were screened using the protein chip based on the gold chip prepared in example 1. 920 microorganism-derived samples, which was purely isolated or partially purified, were reacted with 15 μl solution (3.75 μl of more than 50% glycerol; 3 μl of material dissolved in DMSO at a concentration of less than 10 mg/ml; 7.5 μl of xIAP dissolved in PBS at a concentration of more than 1 mg/ml; 0.75 μl of PBS buffer) at 4° C. for 2 hours to apply to the protein chip. Inhibitory activity was analyzed using SPR imaging as the concentration of protein in solution was increased (FIG. 3).

Experiment [2] has as its target T2, binding of caspase3 and xIAP (Homo sapiens, UniProt P98170).
T2 construct: made in house; host or cells: E. coli BL21
Nature of the experiment: pull down assay using tagged MBP. Particulars: chromomycin increased from 50 μM to 200 μM; MBP resin, SDS PAGE; FIG. 4. The protocol: In order to examine whether chromomycin, screened in the example 2, is activated by the reaction of caspase3 and xIAP, pull down assay using tagged MBP (Maltose Binding Protein) was performed. After xIAP and chromomyicin were added to MBP resin and allowed to react on ice for 2 hours, the resulting mixture was added with caspase3 and allowed to react for about 3 hours, and then washed with PBS buffer solution to load onto 10% SDS PAGE, thus examining the reactant (FIG. 4).

Experiment [3] concerns breast cancer cell line MDA-MB-231. Nature of the experiment: inhibition of proliferation of cancer cell lines (WST-8). Particulars: Homo sapiens, WST-8, over 24 hours treatment, read-out: IC 50 (proliferation). In kind it is cell-based. The protocol: (§1) To examine inhibition of proliferation of the cell lines, the cancer cell lines HCT 116 (Mecoy's 5A medium), SW620 (RPMI 1640) and MDA-MB-231 (RPMI 1640) were cultured to disperse in a 96 well plate. SW620 and HCT116 were innoculated at a concentration of 7,000 cells/100 μl, and MDA-MB-231 was innoculated at a concentration of 5,000 cells/100 μl, respectively, and cultured overnight, followed by an additional reaction of over 24 hours after treating with 1 μl chromomycin prepared according to the concentration. Next, the resulting cells were added with 10 μl of WST-8, counted with an ELISA reader at 450 nm after 2 hours and calculated as a percentage of comparative control added only with DMSO. Inhibitory concentration (IC50), with respect to proliferation of cell lines MDA-MB -231, HCT116, SW620, was measured within the concentration range from 0 to 1 µg/ml by dissolving chromomycin in DMSO (Table 1).
In general terms: Tetrazolium assays rely on reduction of a dye to a coloured formazan, in cell work by metabolically active cells.

Experiment [4] deals with colorectal cancer cell line HCT116. The description is as above. Particulars: Homo sapiens, HCT-116, WST-8, over 24 hours treatment, read-out: IC 50 (proliferation). In kind it is cell-based. The protocol: as §1
The test system of experiment [5] is colorectal cancer cell line SW620. The description is as above. In kind it is cell-based. Particulars: Homo sapiens, SW-620, WST-8, over 24 hours treatment, read-out: IC 50 (proliferation). The protocol: as §1

T1 sequence (P98170 whole entry): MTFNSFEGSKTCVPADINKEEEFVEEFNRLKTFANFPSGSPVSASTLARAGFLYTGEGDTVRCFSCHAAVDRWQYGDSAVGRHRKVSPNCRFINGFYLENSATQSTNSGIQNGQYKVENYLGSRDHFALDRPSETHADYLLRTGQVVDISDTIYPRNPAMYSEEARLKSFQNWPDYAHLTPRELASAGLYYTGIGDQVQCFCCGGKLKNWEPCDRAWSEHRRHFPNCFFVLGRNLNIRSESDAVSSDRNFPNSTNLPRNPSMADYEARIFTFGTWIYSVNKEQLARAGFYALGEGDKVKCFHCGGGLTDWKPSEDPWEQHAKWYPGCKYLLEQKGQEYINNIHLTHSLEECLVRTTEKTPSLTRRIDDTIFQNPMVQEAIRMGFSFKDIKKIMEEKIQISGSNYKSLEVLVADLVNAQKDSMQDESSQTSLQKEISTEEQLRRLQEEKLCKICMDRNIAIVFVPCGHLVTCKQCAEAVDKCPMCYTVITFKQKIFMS
T2 sequence (P98170 whole entry): as above

For the molecule `COC1C(O)CC(OC2CC(Oc3cc4cc5c(c(O)c4c(O)c3C)C(=O)[C@@H](OC3CC(OC4CC(OC6CC(C)(O)C(OC(C)=O)C(C)O6)C(O)C(C)O4)C(O)C(C)O3)[C@H]([C@H](OC)C(=O)[C@@H](O)[C@@H](C)O)C5)OC(C)C2OC(C)=O)OC1C` (some centres unmarked) [Chromomycin], the “inhibition reaction in the protein chip (SPR imaging)” value in experiment [1] is recorded as “constant inhibition reaction concentration-dependently”. For the same molecule, the “resulting reactant of xIAP (MX) and caspase3 (Cas3) in pull down assay” value in experiment [2] was “reduced”. Moreover, the results for the IC50 in experiment [3], in experiment [4] and in experiment [5] were 8.4 nM, 6.7 nM and 80 nM, respectively.

(Values after US20090318376A1, “High Throughput Screening Method of Binding Inhibitor Between caspase3 and XIAP and Binding Inhibitor Screened Thereby” (Korea Research Institute of Bioscience and Biotechnology, priority 2006, published 2009).)
